Test results taken from US20260248128A1, “INSECT NEUROPEPTIDE ANALOGUES” (Solasta Bio Limited, priority 2021, published 2026).
One block for each compound: values may come before it. Where no end group is shown, it is not given here. [ ]: non-standard residue; d: D form. NMeA = CN[C@@H](C)C(=O)O; Ahx = NCCCCCC(=O)O

Key:
[1] = system: M. persicae (peach potato/Green Peach Aphid); assay: IRAC leaf dip assay on adult aphids; assay type: in vivo, Myzus persicae; settings: for Peptide efficacy compared with endogenous CAPA-3: adult aphids and nymphs, scored 72, 96 and 120 hours
Experimental: Peptide efficacy (2×10^−4 M) was assessed on M. persicae (peach potato/Green Peach Aphid) using IRAC leaf dip assays on adult aphids. Peptides were administered on leaves either in DDH2O or Amino Acid Mix (Sadeghi et al., 2010) to increase uptake via feeding. Insecticide treatment was with Spirotetramat, 2×10^−4 M
Data are from 120 hours post-treatment, indicating % adult lethality (left panel); and number of nymphs per sample (right panel) for each of SB-P-1 (endogenous CAPA-3, N =26 (H2O); 15 (AA)), SB-P-14 (CAPA-3 analogue, N=5); SB-P-15 (CAPA-3 analogue, N=10). Peptide application rates are 2×10^−4 M. Note that nymph values for spirotetramat are 0.
Data are for 120 hours, indicating % adult lethality (left panel); and number of nymphs per sample (right panel). Individual data points are shown, N=5. Peptide application rates are 2×10^−4 M.

[2] = system: M. persicae CAPA receptor; assay: activation assay (IP1 assay) for M. persicae CAPA receptor; assay type: cell-based, Myzus persicae; settings: initial screen, FIG. 7
H. halys CAPA receptor = settings: data in Ahn et al, 2020; cited from earlier work
Pyrokinin receptor = settings: Brown Marmorated Stinkbug, H. halys; Ahn et al., 2020; cited from earlier work
[3] = leaf dip, peptide 2×10^−4 M, 120 hours

activation of M. persicae CAPA receptor [2]: do not activate
Compound: Hy-SDSKNT[n-me-A]LWFGPRL-[nh2] [SB-P-15]
Peptide efficacy compared with endogenous CAPA-3 ([1]; leaf dip, peptide 2×10^−4 M): an improvement on endogenous CAPA-3 efficacy
aphicidal efficacy (adult lethality) [1, 3]: highly effective
nymphicidal efficacy [1, 3]: highly effective

Compound: CCOC(=O)OC1=C(c2cc(C)ccc2C)C(=O)N[C@]12CC[C@@H](OC)CC2 [spirotetramat, Spirotetramat, reference compound]
number of nymphs per sample ([1]; 120 hours post-treatment, 2×10^−4 M): 0

activation of M. persicae CAPA receptor [2]: do not activate
Compound: H-SDSKNTALWFGPRL-NH2 [SB-P-1]
activation of H. halys CAPA receptor (H. halys CAPA receptor): does not activate
activation of Pyrokinin receptor (Pyrokinin receptor): activate

Compound: Hy-Ahx-SDSKNT[n-me-A]LWFGPRL-[NH2] ([Ahx]SDSKNT[NMeA]LWFGPRL-NH2; N-terminus assumed; SMILES CC(C)C[C@H](NC(=O)[C@H](CCCNC(=N)N)NC(=O)[C@@H]1CCCN1C(=O)CNC(=O)[C@H](Cc1ccccc1)NC(=O)[C@H](Cc1c[nH]c2ccccc12)NC(=O)[C@H](CC(C)C)NC(=O)[C@H](C)N(C)C(=O)[C@@H](NC(=O)[C@H](CC(N)=O)NC(=O)[C@H](CCCCN)NC(=O)[C@H](CO)NC(=O)[C@H](CC(=O)O)NC(=O)[C@H](CO)NC(=O)CCCCCN)[C@@H](C)O)C(N)=O) [SB-P-14]
Peptide efficacy compared with endogenous CAPA-3 ([1]; leaf dip, peptide 2×10^−4 M): did not perform as well as endogenous CAPA-3
